Data on eight compounds can be found in paper PMC3500254, “Potent Inhibition of Late Stages of Hepadnavirus Replication by a Modified Cell Penetrating Peptide” (PLoS ONE, 2012).

Read-outs that look alike come from different tables or passages of the source. Non-standard residues stand in square brackets, D forms with d. Residues, ends and D or L forms follow the SMILES beside them. *: point of attachment. Stearoyl = CCCCCCCCCCCCCCCCCC(=O)*; Palmitoyl = CCCCCCCCCCCCCCCC(=O)*; Decanoyl = CCCCCCCCCC(=O)*; Octanoyl = CCCCCCCC(=O)*

Test [1] relates to Duck Hepatitis B Virus (DHBV). Kind of test: Inhibition of DHBV release in stably DHBV-transfected LMH-D2 cells (dot-blot of supernatant DHBV DNA). It counts as cell-based. Particulars: concentration of CPP resulting in 50% inhibition of DHBV release, peptide added daily, PhosphorImager. The protocol:
(§1) Infected PDH and LMH-D2 cells were treated with 2 µM of several modified cationic peptides for 5 days. Cells supernatants were collected daily and were spotted onto positively charged nylon membrane and DHBV DNA was detected by hybridization with a DHBV DNA probe labeled with ^32P, and then was quantified by PhosphorImager scanning using ImageQuant software (Molecular Dynamics) to monitor DHBV release. Relative areas under curves determined by the means of duplicate, compared to untreated cells set at 100% are represented. […] Cell viability was determined by enzymatic activity MTT assay after daily incubation with different concentrations of Deca-(Arg)8 ranking from 1 µM to 4 µM during six days. The error bars display the standard deviation of duplicates in three independent experiments.
(§2) DHBV-infected PDHs (A), and stable transfected LMH-D2 cells (B) were treated with increasing amounts of Deca-(Arg)8 ranking from 0.25 µM to 2 µM in duplicates for 6 and 4 days, respectively. Cell culture supernatants were collected daily during treatment. The kinetics of viral release in cell culture supernatants, monitored by dot-blot hybridization and quantified by PhosphorImager scanning using ImageQuant software (Molecular Dynamics) is represented on the upper panel. Relative areas under curves determined by the means of duplicate, compared to untreated cells, are represented in the lower panel. The curves are representative of at least two independent experiments.
(§3) Primary duck hepatocytes (PDH) were isolated from Pekin duck embryos as previously described. DHBV infection was performed at the same time as plating by overnight incubation (16 h) of the hepatocytes with a virus-positive duck serum (30 virus genome equivalents (vge) per cell). The previously described avian hepatoma DHBV transfected LMH-D2 cell line, [38] was grown as previously described. The stably HBV-transfected cell line HepG2.2.15 was grown as previously described. Different amounts of CatLip were added daily to the culture medium from day 1 post-seeding and cells were lyzed at the end of treatment for analysis of intracellular viral DNA, RNA, and proteins. The growth medium was harvested and changed daily. The cellular toxicity was analyzed by daily examination of cells with a light microscope and by a cell toxicity test based on the (3-(4,5-dimethylthiazol-2-yl)-2,5 diphenyl-tetrazolium-bromide (MTT) assay.
(§4) Cells supernatants were harvested daily, spotted onto positively charged nylon membrane and extracellular DHBV DNA was detected in supernatant of cells by dot blot hybridization assay using a full-length ^32P-labelled DHBV probe as described previously. For DHBV intermediate replicative forms analysis, DNA was extracted from cells and 10 µg of the total cellular DNA were subjected to electrophoresis on 1% agarose gel, followed by Southern blot analysis and hybridization with ^32P-labeled genomic DHBV probe as previously described. Viral DNA was quantified by PhosphorImager scanning using ImageQuant software (Molecular Dynamics).

Test [2] has as its system Duck Hepatitis B Virus (DHBV). The protocol: as §1, §2, §3, §4

As to `CCCCCCCCCC(=O)N[C@H](Cc1c[nH]c2ccccc12)C(=O)N[C@H](CCCNC(=N)N)C(=O)N[C@H](CCCNC(=N)N)C(=O)N[C@H](CCCNC(=N)N)C(=O)N[C@H](CCCNC(=N)N)C(=O)N[C@H](CCCNC(=N)N)C(=O)N[C@H](CCCNC(=N)N)C(=O)NCC(N)=O` [Deca-(Arg)6], the half-maximal inhibitory concentration (IC50) in test [1] was 2200 nM; in test [2] (read-out: IC50 of DHBV release, PDH, DHBV-infected PDH, concentration of CPP resulting in 50% inhibition of DHBV release, peptide added daily, supernatant DHBV DNA by dot-blot, 32P probe, PhosphorImager), 1400 nM.
Turning to `CCCCCCCCCCCCCCCC(=O)N[C@H](Cc1c[nH]c2ccccc12)C(=O)N[C@H](CCCNC(=N)N)C(=O)N[C@H](CCCNC(=N)N)C(=O)N[C@H](CCCNC(=N)N)C(=O)N[C@H](CCCNC(=N)N)C(=O)N[C@H](CCCNC(=N)N)C(=O)N[C@H](CCCNC(=N)N)C(=O)N[C@H](CCCNC(=N)N)C(=O)N[C@H](CCCNC(=N)N)C(=O)NCC(N)=O` [Palmit-(Arg)8] (Palmitoyl-[dW][dR][dR][dR][dR][dR][dR][dR][dR]G-NH2), the IC50 stood at 1700 nM in test [1] and 1800 nM in test [2] (16 h).
The like results for `CCCCCCCC(=O)N[C@H](Cc1c[nH]c2ccccc12)C(=O)N[C@H](CCCNC(=N)N)C(=O)N[C@H](CCCNC(=N)N)C(=O)N[C@H](CCCNC(=N)N)C(=O)N[C@H](CCCNC(=N)N)C(=O)N[C@H](CCCNC(=N)N)C(=O)N[C@H](CCCNC(=N)N)C(=O)N[C@H](CCCNC(=N)N)C(=O)N[C@H](CCCNC(=N)N)C(=O)NCC(N)=O` [Octa-(Arg)8] (Octanoyl-[dW][dR][dR][dR][dR][dR][dR][dR][dR]G-NH2) were, in that order, 2700 nM and 1700 nM.
Turning to `CCCCCCCCCC(=O)N[C@H](Cc1c[nH]c2ccccc12)C(=O)N[C@H](CCCNC(=N)N)C(=O)N[C@H](CCCNC(=N)N)C(=O)N[C@H](CCCNC(=N)N)C(=O)N[C@H](CCCNC(=N)N)C(=O)N[C@H](CCCNC(=N)N)C(=O)N[C@H](CCCNC(=N)N)C(=O)N[C@H](CCCNC(=N)N)C(=O)N[C@H](CCCNC(=N)N)C(=O)N[C@H](CCCNC(=N)N)C(=O)N[C@H](CCCNC(=N)N)C(=O)NCC(N)=O` [Deca-(Arg)10], half-maximal inhibition in test [2] (16 h) (IC50) required 1400 nM.
The same measure, in the same setting: the figure for `CCCCCCCCCC(=O)N[C@H](CCCNC(=N)N)C(=O)N[C@H](CCCNC(=N)N)C(=O)N[C@H](CCCNC(=N)N)C(=O)N[C@H](CCCNC(=N)N)C(=O)N[C@H](CCCCN)C(=O)N[C@H](CCCCN)C(=O)N[C@H](CCCCN)C(=O)N[C@H](CCCCN)C(=O)NCC(N)=O` [Deca-(Arg-Lys)4–4] (Decanoyl-[dR][dR][dR][dR][dK][dK][dK][dK]G-NH2) is 2300 nM.
As for `CCCCCCCCCCCCCCCCCC(=O)N[C@H](Cc1c[nH]c2ccccc12)C(=O)N[C@H](CCCNC(=N)N)C(=O)N[C@H](CCCNC(=N)N)C(=O)N[C@H](CCCNC(=N)N)C(=O)N[C@H](CCCNC(=N)N)C(=O)N[C@H](CCCNC(=N)N)C(=O)N[C@H](CCCNC(=N)N)C(=O)N[C@H](CCCNC(=N)N)C(=O)N[C@H](CCCNC(=N)N)C(=O)NCC(N)=O` [Stear-(Arg)8] (Stearoyl-[dW][dR][dR][dR][dR][dR][dR][dR][dR]G-NH2), the IC50 in test [1] was 1800 nM; in test [2] (16 h), 1900 nM.
The compound `CCCCCCCCCC(=O)N[C@H](Cc1c[nH]c2ccccc12)C(=O)N[C@H](CCCNC(=N)N)C(=O)N[C@H](CCCNC(=N)N)C(=O)N[C@H](CCCNC(=N)N)C(=O)N[C@H](CCCNC(=N)N)C(=O)N[C@H](CCCNC(=N)N)C(=O)N[C@H](CCCNC(=N)N)C(=O)N[C@H](CCCNC(=N)N)C(=O)N[C@H](CCCNC(=N)N)C(=O)N[C@H](CCCNC(=N)N)C(=O)NCC(N)=O` [Deca-(Arg)9] (Decanoyl-[dW][dR][dR][dR][dR][dR][dR][dR][dR][dR]G-NH2) registered an IC50 in test [2] (16 h) of 1600 nM.
Regarding `CCCCCCCCCC(=O)O` [decanoic acid, reference compound], the “effect on DHBV secretion” value in test [2] (5-days treatment, decanoic acid 0.5 to 10 µM, Fig. S2 (PDH and LMH-D2)) is given as “unable to significantly decrease DHBV secretion”.

The term IC50 denotes the concentration that gives 50% inhibition.
